In ChEMBL document CHEMBL1136209, “Bone-targeted 2,6,9-trisubstituted purines: novel inhibitors of Src tyrosine kinase for the treatment of bone diseases” (Bioorg Med Chem Lett, 2003):
One block for each compound: values may come before it.

How the values were obtained:
[1] = Compound was tested for its relative bone-targeting affinity using a hydroxyapatite column
[2] = molecular target: Casein kinase II (Homo sapiens) (UniProt P67870+P68400+P19784); assay: Selectivity for casein kinase II, CK2; type: protein-complex assay
[3] = molecular target: Cyclin-dependent kinase 1 (Homo sapiens) (UniProt P06493); assay: Selectivity for cyclin-dependent kinase-1, CDK1
[4] = molecular target: T1, Cyclin-dependent kinase 2 (Homo sapiens, UniProt P24941); assay: Selectivity for cyclin-dependent kinase 2, CDK2
[5] = molecular target: DNA-dependent protein kinase catalytic subunit (Homo sapiens) (UniProt P78527); assay: Selectivity for Protein kinase, DNAPK
[6] = molecular target: Cyclin-dependent kinase 5 (Homo sapiens) (UniProt Q00535); assay: Selectivity for cyclin-dependent kinase-5, CDK5
[7] = Selectivity towards Protein kinase, EST-PT1
[8] = molecular target: Mitogen-activated protein kinase 3 (Homo sapiens) (UniProt P27361); assay: Selectivity for mitogen-activated protein kinase, ERK1
[9] = molecular target: Tyrosine-protein kinase Fyn (Homo sapiens) (UniProt P06241); assay: Selectivity for Fyn kinase
[10] = molecular target: Glycogen synthase kinase-3 beta (Homo sapiens) (UniProt P49841); assay: Selectivity for GSK3-beta
[11] = molecular target: T2, Scaffold protein ILK (Homo sapiens) (UniProt Q13418); assay: Selectivity towards Protein kinase, ILK1
T2 sequence (whole entry): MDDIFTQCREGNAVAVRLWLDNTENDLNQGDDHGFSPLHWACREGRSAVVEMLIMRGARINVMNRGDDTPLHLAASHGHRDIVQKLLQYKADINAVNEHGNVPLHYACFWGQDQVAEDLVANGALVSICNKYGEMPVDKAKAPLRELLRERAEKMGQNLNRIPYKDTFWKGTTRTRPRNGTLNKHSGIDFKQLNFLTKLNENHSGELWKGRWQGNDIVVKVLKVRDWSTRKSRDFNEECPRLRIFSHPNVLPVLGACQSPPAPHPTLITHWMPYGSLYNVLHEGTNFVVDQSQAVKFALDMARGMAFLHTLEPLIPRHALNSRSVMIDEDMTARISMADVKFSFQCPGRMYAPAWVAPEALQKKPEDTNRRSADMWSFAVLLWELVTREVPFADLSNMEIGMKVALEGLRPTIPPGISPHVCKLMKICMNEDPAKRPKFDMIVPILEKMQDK

[12] = molecular target: Receptor-type tyrosine-protein phosphatase F (Homo sapiens) (UniProt P10586); assay: Selectivity towards Protein phosphatase, LAR
[13] = Selectivity towards Protein phosphatase, MEG2
[14] = molecular target: Serine/threonine-protein kinase pim-1 (Homo sapiens) (UniProt P11309); assay: Selectivity towards Protein kinase, PIM1
[15] = molecular target: Serine/threonine-protein kinase PAK 3 (Homo sapiens) (UniProt O75914); assay: Selectivity for p21-activated kinase-3, PAK3
[16] = molecular target: cAMP-dependent protein kinase (PKA) (Homo sapiens) (UniProt P22694+P17612+P22612); assay: Selectivity for PKA; type: protein assay
[17] = molecular target: Protein kinase C (PKC) (Homo sapiens) (UniProt O94806+P41743+P17252+P05129+Q05655+P05771+Q05513+Q02156+P24723+Q15139+Q04759); assay: Selectivity for Protein kinase, PKC; type: protein assay
[18] = molecular target: T3, Tyrosine-protein phosphatase non-receptor type 1 (Homo sapiens) (UniProt P18031); assay: Selectivity towards Protein phosphatase, PTP1b
T3 sequence (whole entry): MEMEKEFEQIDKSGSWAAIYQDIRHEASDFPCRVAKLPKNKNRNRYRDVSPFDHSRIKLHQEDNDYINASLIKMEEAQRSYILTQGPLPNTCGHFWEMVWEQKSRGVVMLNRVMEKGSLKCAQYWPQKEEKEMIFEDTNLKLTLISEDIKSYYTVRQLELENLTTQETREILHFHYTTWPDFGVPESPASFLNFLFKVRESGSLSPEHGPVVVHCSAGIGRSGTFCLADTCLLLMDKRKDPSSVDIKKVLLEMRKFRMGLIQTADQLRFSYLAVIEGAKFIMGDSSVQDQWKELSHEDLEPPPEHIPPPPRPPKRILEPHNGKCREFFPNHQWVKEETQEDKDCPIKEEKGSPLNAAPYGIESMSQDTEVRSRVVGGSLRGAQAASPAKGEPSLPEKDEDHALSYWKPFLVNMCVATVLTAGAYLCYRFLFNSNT

[19] = molecular target: T4, Serine/threonine-protein kinase 3 (Homo sapiens) (UniProt Q13188); assay: Selectivity for Serine/threonine kinase 3
T4 sequence (whole entry): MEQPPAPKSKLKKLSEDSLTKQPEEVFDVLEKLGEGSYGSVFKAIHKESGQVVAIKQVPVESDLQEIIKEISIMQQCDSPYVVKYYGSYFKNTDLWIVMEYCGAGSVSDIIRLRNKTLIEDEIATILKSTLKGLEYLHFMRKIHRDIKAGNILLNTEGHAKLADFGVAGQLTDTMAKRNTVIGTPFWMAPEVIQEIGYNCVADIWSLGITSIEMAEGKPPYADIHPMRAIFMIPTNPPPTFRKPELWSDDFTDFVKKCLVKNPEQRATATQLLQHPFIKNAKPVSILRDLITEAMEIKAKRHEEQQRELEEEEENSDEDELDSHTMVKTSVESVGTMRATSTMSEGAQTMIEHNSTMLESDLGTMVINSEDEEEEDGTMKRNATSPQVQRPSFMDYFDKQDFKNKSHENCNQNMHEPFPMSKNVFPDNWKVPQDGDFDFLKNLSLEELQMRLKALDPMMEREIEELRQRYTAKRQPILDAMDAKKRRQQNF

[20] = molecular target: Tyrosine-protein kinase CSK (Homo sapiens) (UniProt P41240); assay: Selectivity over Protein kinase CSK (100-500)
[21] = molecular target: Wee1-like protein kinase (Homo sapiens) (UniProt P30291); assay: Selectivity for Protein kinase WEE1
[22] = molecular target: Tyrosine-protein kinase Lck (Homo sapiens) (UniProt P06239); assay: Selectivity p56 Lck tyrosine kinase
[23] = molecular target: Serine/threonine-protein kinase pim-1 (Homo sapiens) (UniProt P11309); assay: Selectivity for pim-1 oncogene
[24] = Selectivity towards Protein phosphatase, TC-PTP
[25] = molecular target: T1, Cyclin-dependent kinase 2; assay: Inhibition of Cyclin-dependent kinase 2 (CDK2)

Chain of Serine/threonine-protein kinase pim-1 (Homo sapiens) (P11309 whole entry, looked up): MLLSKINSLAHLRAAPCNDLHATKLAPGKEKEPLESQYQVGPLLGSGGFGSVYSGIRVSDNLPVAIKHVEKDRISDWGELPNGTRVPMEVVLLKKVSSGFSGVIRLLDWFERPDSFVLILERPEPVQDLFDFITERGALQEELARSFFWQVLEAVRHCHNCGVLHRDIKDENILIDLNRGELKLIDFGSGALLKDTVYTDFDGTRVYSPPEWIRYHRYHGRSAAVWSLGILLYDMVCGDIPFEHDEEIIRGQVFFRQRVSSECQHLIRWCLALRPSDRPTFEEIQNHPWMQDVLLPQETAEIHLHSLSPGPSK
Chain of Tyrosine-protein kinase Fyn (Homo sapiens) (P06241 2-537 limits assumed): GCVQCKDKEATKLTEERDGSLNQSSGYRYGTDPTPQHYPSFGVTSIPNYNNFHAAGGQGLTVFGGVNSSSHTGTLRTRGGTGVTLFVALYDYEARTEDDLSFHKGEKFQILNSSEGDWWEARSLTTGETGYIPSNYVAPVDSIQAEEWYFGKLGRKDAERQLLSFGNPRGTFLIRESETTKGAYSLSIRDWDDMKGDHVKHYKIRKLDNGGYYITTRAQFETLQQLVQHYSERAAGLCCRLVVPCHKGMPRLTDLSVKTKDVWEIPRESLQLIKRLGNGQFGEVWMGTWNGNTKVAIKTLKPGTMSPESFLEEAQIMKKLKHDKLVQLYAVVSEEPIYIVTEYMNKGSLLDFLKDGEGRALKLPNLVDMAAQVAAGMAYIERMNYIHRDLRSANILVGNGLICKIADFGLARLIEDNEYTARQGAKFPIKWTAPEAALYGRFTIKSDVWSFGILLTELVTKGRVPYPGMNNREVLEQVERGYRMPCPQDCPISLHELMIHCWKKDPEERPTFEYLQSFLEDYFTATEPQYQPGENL
Chain of Receptor-type tyrosine-protein phosphatase F (Homo sapiens) (P10586 whole entry): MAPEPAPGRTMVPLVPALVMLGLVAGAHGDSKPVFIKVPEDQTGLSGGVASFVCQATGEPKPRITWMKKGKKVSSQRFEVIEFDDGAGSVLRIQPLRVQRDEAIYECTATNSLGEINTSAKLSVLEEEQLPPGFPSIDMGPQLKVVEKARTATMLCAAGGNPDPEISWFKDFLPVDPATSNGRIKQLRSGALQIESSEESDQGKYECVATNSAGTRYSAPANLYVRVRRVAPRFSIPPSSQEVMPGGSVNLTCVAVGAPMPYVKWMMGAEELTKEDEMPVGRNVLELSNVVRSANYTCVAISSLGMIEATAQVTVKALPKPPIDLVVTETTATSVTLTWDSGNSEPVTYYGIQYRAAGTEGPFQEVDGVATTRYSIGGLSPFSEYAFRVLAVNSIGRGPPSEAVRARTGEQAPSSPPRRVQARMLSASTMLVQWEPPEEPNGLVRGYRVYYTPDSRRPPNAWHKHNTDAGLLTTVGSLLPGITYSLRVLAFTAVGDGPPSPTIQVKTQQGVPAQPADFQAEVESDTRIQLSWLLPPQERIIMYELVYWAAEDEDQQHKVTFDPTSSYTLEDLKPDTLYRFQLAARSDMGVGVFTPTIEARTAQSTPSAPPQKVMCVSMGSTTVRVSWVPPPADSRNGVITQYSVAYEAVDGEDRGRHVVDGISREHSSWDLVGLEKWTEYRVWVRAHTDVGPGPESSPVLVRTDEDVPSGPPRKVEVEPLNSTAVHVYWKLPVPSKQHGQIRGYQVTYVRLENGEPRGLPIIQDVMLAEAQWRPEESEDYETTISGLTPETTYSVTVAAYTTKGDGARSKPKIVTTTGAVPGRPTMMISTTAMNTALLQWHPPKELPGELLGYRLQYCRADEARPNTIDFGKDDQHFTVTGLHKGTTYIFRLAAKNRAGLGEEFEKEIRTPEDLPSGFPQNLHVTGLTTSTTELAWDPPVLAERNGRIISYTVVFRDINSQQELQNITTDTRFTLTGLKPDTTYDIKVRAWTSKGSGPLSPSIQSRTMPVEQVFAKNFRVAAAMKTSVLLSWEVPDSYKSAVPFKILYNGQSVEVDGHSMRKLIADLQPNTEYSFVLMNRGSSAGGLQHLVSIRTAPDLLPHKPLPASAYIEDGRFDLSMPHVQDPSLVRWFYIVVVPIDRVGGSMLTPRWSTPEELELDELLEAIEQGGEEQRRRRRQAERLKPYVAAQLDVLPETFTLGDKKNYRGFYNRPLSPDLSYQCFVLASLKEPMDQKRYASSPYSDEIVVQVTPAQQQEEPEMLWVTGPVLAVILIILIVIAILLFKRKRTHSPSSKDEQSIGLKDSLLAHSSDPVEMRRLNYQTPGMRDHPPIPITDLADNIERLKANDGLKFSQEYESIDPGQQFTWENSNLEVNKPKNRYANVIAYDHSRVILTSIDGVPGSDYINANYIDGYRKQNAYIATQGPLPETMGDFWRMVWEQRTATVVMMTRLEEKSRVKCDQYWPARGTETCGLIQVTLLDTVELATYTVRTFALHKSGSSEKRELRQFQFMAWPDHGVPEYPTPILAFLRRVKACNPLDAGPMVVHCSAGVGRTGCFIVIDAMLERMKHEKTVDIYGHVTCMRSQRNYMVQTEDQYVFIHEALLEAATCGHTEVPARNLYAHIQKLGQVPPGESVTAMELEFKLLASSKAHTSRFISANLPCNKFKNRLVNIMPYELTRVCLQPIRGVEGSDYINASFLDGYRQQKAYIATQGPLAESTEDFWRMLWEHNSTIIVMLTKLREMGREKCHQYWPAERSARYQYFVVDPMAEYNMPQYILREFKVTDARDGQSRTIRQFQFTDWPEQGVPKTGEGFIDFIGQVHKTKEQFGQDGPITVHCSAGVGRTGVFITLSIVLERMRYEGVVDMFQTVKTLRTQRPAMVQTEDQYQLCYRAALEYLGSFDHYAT
Chain of Glycogen synthase kinase-3 beta (Homo sapiens) (P49841 whole entry, looked up): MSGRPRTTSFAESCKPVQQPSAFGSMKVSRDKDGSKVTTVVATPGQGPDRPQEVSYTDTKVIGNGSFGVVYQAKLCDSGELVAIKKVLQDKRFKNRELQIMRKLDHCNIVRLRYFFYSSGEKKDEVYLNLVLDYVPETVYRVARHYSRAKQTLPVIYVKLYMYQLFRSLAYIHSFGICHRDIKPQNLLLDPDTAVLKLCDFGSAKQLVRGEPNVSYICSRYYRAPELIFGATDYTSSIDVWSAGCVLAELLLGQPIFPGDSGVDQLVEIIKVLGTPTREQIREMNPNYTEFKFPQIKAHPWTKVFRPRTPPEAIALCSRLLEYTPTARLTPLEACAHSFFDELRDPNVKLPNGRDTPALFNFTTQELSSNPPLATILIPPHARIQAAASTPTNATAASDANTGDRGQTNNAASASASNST
Chain of Tyrosine-protein kinase Lck (Homo sapiens) (P06239 2-509 limits assumed): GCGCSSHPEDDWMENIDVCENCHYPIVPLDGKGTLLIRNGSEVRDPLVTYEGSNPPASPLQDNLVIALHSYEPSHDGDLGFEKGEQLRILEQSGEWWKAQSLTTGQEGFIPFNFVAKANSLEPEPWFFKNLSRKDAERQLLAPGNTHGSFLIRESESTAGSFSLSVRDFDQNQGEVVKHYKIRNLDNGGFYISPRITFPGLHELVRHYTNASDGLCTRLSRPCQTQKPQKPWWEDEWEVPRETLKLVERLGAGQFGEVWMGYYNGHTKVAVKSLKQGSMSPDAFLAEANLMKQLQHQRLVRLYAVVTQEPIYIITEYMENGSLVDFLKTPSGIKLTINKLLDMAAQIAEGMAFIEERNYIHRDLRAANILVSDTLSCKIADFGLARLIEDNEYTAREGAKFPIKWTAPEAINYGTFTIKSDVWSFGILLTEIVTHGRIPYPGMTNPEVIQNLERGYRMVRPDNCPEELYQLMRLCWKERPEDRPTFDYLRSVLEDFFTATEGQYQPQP
Chain of Wee1-like protein kinase (Homo sapiens) (P30291 whole entry, looked up): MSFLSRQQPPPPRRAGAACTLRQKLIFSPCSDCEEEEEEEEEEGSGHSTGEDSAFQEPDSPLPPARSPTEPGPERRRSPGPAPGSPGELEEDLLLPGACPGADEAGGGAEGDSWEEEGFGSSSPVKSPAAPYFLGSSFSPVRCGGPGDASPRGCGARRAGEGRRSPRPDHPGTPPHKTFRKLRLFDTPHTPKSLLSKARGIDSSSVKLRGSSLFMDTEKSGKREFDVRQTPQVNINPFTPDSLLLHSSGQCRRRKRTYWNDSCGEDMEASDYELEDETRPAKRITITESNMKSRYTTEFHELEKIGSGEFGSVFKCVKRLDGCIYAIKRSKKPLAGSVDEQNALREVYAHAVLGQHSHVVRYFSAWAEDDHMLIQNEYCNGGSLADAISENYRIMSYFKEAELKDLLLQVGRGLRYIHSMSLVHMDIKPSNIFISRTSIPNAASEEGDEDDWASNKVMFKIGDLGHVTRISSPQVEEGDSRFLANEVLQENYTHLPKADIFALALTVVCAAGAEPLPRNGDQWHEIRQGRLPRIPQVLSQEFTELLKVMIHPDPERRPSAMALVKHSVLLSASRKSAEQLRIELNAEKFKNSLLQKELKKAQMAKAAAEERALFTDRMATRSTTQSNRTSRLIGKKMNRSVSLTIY
Chain of Serine/threonine-protein kinase PAK 3 (Homo sapiens) (O75914 whole entry, looked up): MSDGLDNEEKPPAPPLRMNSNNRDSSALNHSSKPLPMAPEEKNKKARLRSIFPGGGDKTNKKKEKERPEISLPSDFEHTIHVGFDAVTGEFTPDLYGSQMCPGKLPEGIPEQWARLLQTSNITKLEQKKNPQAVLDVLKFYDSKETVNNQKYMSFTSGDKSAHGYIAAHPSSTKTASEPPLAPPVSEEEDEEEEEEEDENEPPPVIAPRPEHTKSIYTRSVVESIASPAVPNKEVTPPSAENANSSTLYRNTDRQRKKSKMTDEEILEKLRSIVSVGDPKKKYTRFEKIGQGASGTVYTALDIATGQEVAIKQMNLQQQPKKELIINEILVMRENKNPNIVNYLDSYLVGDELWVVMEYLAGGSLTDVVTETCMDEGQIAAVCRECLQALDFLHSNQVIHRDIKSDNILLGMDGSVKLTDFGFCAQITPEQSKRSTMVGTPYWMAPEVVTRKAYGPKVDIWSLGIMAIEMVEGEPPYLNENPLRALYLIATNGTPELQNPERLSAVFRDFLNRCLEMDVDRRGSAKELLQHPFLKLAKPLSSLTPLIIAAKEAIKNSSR

K' [1]: 3.3
SMILES: N[C@H]1CC[C@H](Nc2nc(Nc3ccc(C(P(=O)(O)O)P(=O)(O)O)cc3)c3ncn(C4CCCC4)c3n2)CC1

K' [1]: 0
SMILES: N[C@H]1CC[C@H](Nc2nc(Nc3ccccc3)c3ncn(C4CCCC4)c3n2)CC1

Selectivity [2]: > 500
Selectivity [3]: 10
Selectivity [4]: 10
Selectivity [5]: > 500
Selectivity [6]: 10
Selectivity [7]: > 500
Selectivity [8]: > 500
Selectivity [9]: 1
Selectivity [10]: > 500
Selectivity [11]: > 500
Selectivity [12]: > 500
Selectivity [13]: > 500
Selectivity [14]: > 500
Selectivity [15]: 100
Selectivity [16]: > 500
Selectivity [17]: > 500
Selectivity [18]: > 500
Selectivity [19]: > 500
Selectivity [20]: 100
Selectivity [21]: > 500
Selectivity [22]: 100
K' [1]: 2.5
Selectivity [23]: > 500
Selectivity [24]: > 500
SMILES: N[C@H]1CC[C@H](Nc2nc(Nc3ccc(P(=O)(O)CP(=O)(O)O)cc3)c3ncn(C4CCCC4)c3n2)CC1

K' [1]: 0
SMILES: CN(C)CCNc1nc(Nc2ccccc2)c2ncn(C3CCCC3)c2n1

K' [1]: 1.8
SMILES: N[C@H]1CC[C@H](Nc2nc(Nc3ccc(P(=O)(O)O)c(P(=O)(O)O)c3)c3ncn(C4CCCC4)c3n2)CC1

K' [1]: 3.6
SMILES: O=P(O)(O)C(O)(CCCNc1nc(Nc2ccccc2)c2ncn(C3CCCC3)c2n1)P(=O)(O)O

K' [1]: 2.3
SMILES: O=P(O)(O)CP(=O)(O)CCCNc1nc(Nc2ccccc2)c2ncn(C3CCCC3)c2n1

SMILES: CC(C)[C@H](CO)Nc1nc(Nc2cccc(Cl)c2)c2ncn(C(C)C)c2n1 [PURVALANOLA]
IC50 [25]: 4 nM
